{"source": "paper PMC4584933", "about": "“Establishing the pig as a large animal model for vaccine development against human cancer” (Frontiers in Genetics, 2015)", "key": {"SLA-2*04:01": {"tested_on": "SLA-2*04:01", "experiment": "Peptide-MHC class I complex stability, scintillation proximity assay (SPA)", "parameters": "species or system pig", "conditions": "biotinylated recombinant SLA heavy chain, 125I-β2m, excess unlabeled β2m, read every 40 min, number only if t1/2 ≥ 0.5 h, '-' = not stably binding", "procedure": "The stability of the selected 198 peptides in complex with relevant SLA class I molecules and β2m was determined using a scintillation proximity assay (SPA), as previously described (Harndahl et al., [2011]). Briefly, biotinylated recombinant MHC class I heavy chains were attached to a streptavidin-coated scintillation microplate together with iodinated (^125I) β2m and candidate peptide resulting in a scintillation signal, which was consecutively measured every 40 min by a scintillation plate counter. The duration of this signal is directly correlated to the stability of the peptide-MHC class I-β2m complex under dissociating conditions and in the presence of excess unlabeled β2m (Harndahl et al., [2011]). Peptides with a half-life ≥ 0.5 h were selected as stable binders."}, "PBMCs": {"tested_on": "PBMCs", "experiment": "In vitro peptide stimulation of porcine PBMCs, IFN-γ release assay (ELISA)", "format": "cell-based, pig", "parameters": "key to T cell response: “x” indicates that a response was found to this given peptide at least once", "conditions": "for T cell response: PBMCs of immunized pigs, 2 × 10^5/well, 5 μg/ml peptide, 67.5–70.0 h, IFN-γ ELISA, response = 2-fold increase vs day -2 and at least 25 pg/ml IFN-γ, found at least once, SLA restriction not included"}}, "data": [{"substance": "LSEGLLYEGVW [IDO71, porcine IDO-derived 9-11mer peptide]", "values": [{"measurement": "Binder (t1/2 ≥ 0.5 h): half-life of peptide-SLA-2*04:01 complex", "setting": "SLA-2*04:01", "value": 264, "unit": "min"}, {"measurement": "T cell response", "setting": "PBMCs", "value": "x"}]}, {"substance": "FALPNPLEEL [IDO22, porcine IDO-derived 9-11mer peptide]", "values": [{"measurement": "Binder (t1/2 ≥ 0.5 h): half-life of peptide-SLA-2*04:01 complex", "setting": "SLA-2*04:01", "value": 30, "unit": "min"}, {"measurement": "T cell response", "setting": "PBMCs", "value": "x"}]}, {"substance": "AGFLQEMRTY [IDO1, porcine IDO-derived 9-11mer peptide]", "values": [{"measurement": "Binder (t1/2 ≥ 0.5 h): half-life of peptide-SLA-2*04:01 complex", "setting": "SLA-2*04:01", "value": 36, "unit": "min"}, {"measurement": "T cell response", "setting": "PBMCs", "value": "x"}]}, {"substance": "NSWKIFEEYH [IDO90, porcine IDO-derived 9-11mer peptide]", "values": [{"measurement": "Binder (t1/2 ≥ 0.5 h): half-life of peptide-SLA-2*04:01 complex", "setting": "SLA-2*04:01", "value": "- (t1/2 (hours) is listed for each of the stably binding peptides (t1/2 ≥ 0.5 h))"}]}, {"substance": "LVYADCVLANW [IDO74, porcine IDO-derived 9-11mer peptide]", "values": [{"measurement": "Binder (t1/2 ≥ 0.5 h): half-life of peptide-SLA-2*04:01 complex", "setting": "SLA-2*04:01", "value": "- (t1/2 (hours) is listed for each of the stably binding peptides (t1/2 ≥ 0.5 h))"}]}, {"substance": "DWWSPMDNSW [IDO13, porcine IDO-derived 9-11mer peptide]", "values": [{"measurement": "Binder (t1/2 ≥ 0.5 h): half-life of peptide-SLA-2*04:01 complex", "setting": "SLA-2*04:01", "value": "- (t1/2 (hours) is listed for each of the stably binding peptides (t1/2 ≥ 0.5 h))"}]}, {"substance": "WDTAGQEDY [RhoC55, porcine RhoC-derived 9-11mer peptide]", "values": [{"measurement": "Binder (t1/2 ≥ 0.5 h): half-life of peptide-SLA-2*04:01 complex", "setting": "SLA-2*04:01", "value": "- (t1/2 (hours) is listed for each of the stably binding peptides (t1/2 ≥ 0.5 h))"}]}, {"substance": "SSLHKALEVF [IDO121, porcine IDO-derived 9-11mer peptide]", "values": [{"measurement": "Binder (t1/2 ≥ 0.5 h): half-life of peptide-SLA-2*04:01 complex", "setting": "SLA-2*04:01", "value": "- (t1/2 (hours) is listed for each of the stably binding peptides (t1/2 ≥ 0.5 h))"}]}, {"substance": "DNSWKIFEEY [IDO11, porcine IDO-derived 9-11mer peptide]", "values": [{"measurement": "Binder (t1/2 ≥ 0.5 h): half-life of peptide-SLA-2*04:01 complex", "setting": "SLA-2*04:01", "value": "- (t1/2 (hours) is listed for each of the stably binding peptides (t1/2 ≥ 0.5 h))"}]}, {"substance": "FNAIQCEDL [IDO26, porcine IDO-derived 9-11mer peptide]", "values": [{"measurement": "Binder (t1/2 ≥ 0.5 h): half-life of peptide-SLA-2*04:01 complex", "setting": "SLA-2*04:01", "value": 36, "unit": "min"}, {"measurement": "T cell response", "setting": "PBMCs", "value": "x"}]}, {"substance": "VFSKDQFPEVY [RhoC53, porcine RhoC-derived 9-11mer peptide]", "values": [{"measurement": "Binder (t1/2 ≥ 0.5 h): half-life of peptide-SLA-2*04:01 complex", "setting": "SLA-2*04:01", "value": "- (t1/2 (hours) is listed for each of the stably binding peptides (t1/2 ≥ 0.5 h))"}]}, {"substance": "FNVLRIYLSGW [IDO29, porcine IDO-derived 9-11mer peptide]", "values": [{"measurement": "Binder (t1/2 ≥ 0.5 h): half-life of peptide-SLA-2*04:01 complex", "setting": "SLA-2*04:01", "value": 2020, "unit": "min"}, {"measurement": "T cell response", "setting": "PBMCs", "value": "x"}]}, {"substance": "WWSPMDNSW [IDO132, porcine IDO-derived 9-11mer peptide]", "values": [{"measurement": "Binder (t1/2 ≥ 0.5 h): half-life of peptide-SLA-2*04:01 complex", "setting": "SLA-2*04:01", "value": "- (t1/2 (hours) is listed for each of the stably binding peptides (t1/2 ≥ 0.5 h))"}]}, {"substance": "NYHLQIVTKY [IDO93, porcine IDO-derived 9-11mer peptide]", "values": [{"measurement": "Binder (t1/2 ≥ 0.5 h): half-life of peptide-SLA-2*04:01 complex", "setting": "SLA-2*04:01", "value": "- (t1/2 (hours) is listed for each of the stably binding peptides (t1/2 ≥ 0.5 h))"}]}, {"substance": "Staphylococcal Enterotoxin B [SEB, reference compound]", "values": [{"measurement": "IFN-γ in positive control cultures", "setting": "PBMCs", "value": "> 70", "unit": "pg/mL"}]}, {"substance": "DSLENIPEKW [RhoC9, porcine RhoC-derived 9-11mer peptide]", "values": [{"measurement": "Binder (t1/2 ≥ 0.5 h): half-life of peptide-SLA-2*04:01 complex", "setting": "SLA-2*04:01", "value": "- (t1/2 (hours) is listed for each of the stably binding peptides (t1/2 ≥ 0.5 h))"}]}, {"substance": "FSKDQFPEVY [RhoC26, porcine RhoC-derived 9-11mer peptide]", "values": [{"measurement": "Binder (t1/2 ≥ 0.5 h): half-life of peptide-SLA-2*04:01 complex", "setting": "SLA-2*04:01", "value": "- (t1/2 (hours) is listed for each of the stably binding peptides (t1/2 ≥ 0.5 h))"}]}, {"substance": "LDWWSPMDNSW [IDO64, porcine IDO-derived 9-11mer peptide]", "values": [{"measurement": "Binder (t1/2 ≥ 0.5 h): half-life of peptide-SLA-2*04:01 complex", "setting": "SLA-2*04:01", "value": "- (t1/2 (hours) is listed for each of the stably binding peptides (t1/2 ≥ 0.5 h))"}]}, {"substance": "EKLGLPPILVY [IDO17, porcine IDO-derived 9-11mer peptide]", "values": [{"measurement": "Binder (t1/2 ≥ 0.5 h): half-life of peptide-SLA-2*04:01 complex", "setting": "SLA-2*04:01", "value": "- (t1/2 (hours) is listed for each of the stably binding peptides (t1/2 ≥ 0.5 h))"}]}, {"substance": "ENYIADIEVD [RhoC19, porcine RhoC-derived 9-11mer peptide]", "values": [{"measurement": "Binder (t1/2 ≥ 0.5 h): half-life of peptide-SLA-2*04:01 complex", "setting": "SLA-2*04:01", "value": "- (t1/2 (hours) is listed for each of the stably binding peptides (t1/2 ≥ 0.5 h))"}]}, {"substance": "LGYITMAYVW [IDO66, porcine IDO-derived 9-11mer peptide]", "values": [{"measurement": "Binder (t1/2 ≥ 0.5 h): half-life of peptide-SLA-2*04:01 complex", "setting": "SLA-2*04:01", "value": 294, "unit": "min"}, {"measurement": "T cell response", "setting": "PBMCs", "value": "x"}]}, {"substance": "VDGKQVELALW [RhoC52, porcine RhoC-derived 9-11mer peptide]", "values": [{"measurement": "Binder (t1/2 ≥ 0.5 h): half-life of peptide-SLA-2*04:01 complex", "setting": "SLA-2*04:01", "value": 30, "unit": "min"}, {"measurement": "T cell response", "setting": "PBMCs", "value": "x"}]}]}
